Key:
[1] = test system: IPOHE (Morningglory, Ivyleaf); test: Preemergence herbicidal evaluation; format: in vivo, Ipomoea hederacea; details: preemergence, rated 4-5 weeks after treatment, 0-9 scale
Summary of the method: (§1)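 Steps: mix seeds into potting soil; plant atop ~1 inch soil; spray compound in aqueous acetone (~0.0156-0.500 kg/ha equivalent); maintain in greenhouse with watering; rate visually 0-9 versus control at 4-5 weeks.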

GALAP (Galium) = test: Postemergence herbicidal evaluation; format: in vivo, Galium aparine; details: postemergence
Summary of the method: (§2)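 First, seedlings were raised for around two weeks. Next, test material in 50/50 acetone/water containing 0.5% TWEEN 20 was sprayed through a nozzle at 40 psi, equivalent to about 0.0156–0.500 kg/ha. Finally, after 4–5 weeks in the greenhouse, plants were rated 0–9.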

[2] = test system: ECHORC (Watergrass (Calif.)); test: Preemergence weed control under flooded paddy conditions; format: in vivo, Echinochloa oryzoides; details: rated 3-4 weeks after treatment
Summary of the method: (§3)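 Ratings on a 0-9 visual scale cover stand, vigor, malformation, size, chlorosis and overall appearance relative to a control, taken three to four weeks post-treatment. Application was into flood water over freshly sown silt loam at roughly 0.0313 to 0.500 kg/ha.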

[3] = test system: CHEAL (Lambsquarters, Common); test: Preemergence herbicidal evaluation; format: in vivo, Chenopodium album; details: preemergence, rated 4-5 weeks after treatment, 0-9 scale
Summary of the method: as §1

CYPSE (Flatsedge) [4] = test: Preemergence weed control under flooded paddy conditions; format: in vivo, Cyperus serotinus; details: rated 3-4 weeks after treatment
Summary of the method: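 Using flooded silt loam (water 1.5 to 3 cm deep), seeds sown in the top 0.5 cm were exposed preemergence to compound pipetted into the flood at about 0.0313 to 0.500 kg/ha. Effects were scored 0-9 by eye three to four weeks later.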

[5] = test system: TRZAWR (Wheat, Winter, cv Riband); test: Preemergence herbicidal evaluation; format: in vivo, Triticum aestivum; details: preemergence, rated 4-5 weeks after treatment, 0-9 scale
Summary of the method: as §1

[6] = test system: ECHORC (Watergrass (Calif.)); test: Postemergence weed control under flooded paddy conditions; format: in vivo, Echinochloa oryzoides; details: postemergence weeds, rated 3 to 4 weeks after treatment
Summary of the method: (§4)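 Injury ratings (0–9 scale covering stand, vigor, malformation, size, chlorosis and overall appearance versus control) were made three to four weeks after treatment. Test material, about 0.0313 to 0.500 kg/ha a.i. in 50/50 v/v aqueous/acetone, was added to flood water 1.5 to 3 cm deep over 3 to 5 cm weeds and 1.5 to 2.5 leaf rice.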

ORYSAT (Rice, Tebonnet) = test: Preemergence herbicidal evaluation; format: in vivo, Oryza sativa, (L.) Tebonnet; details: preemergence, rated 4-5 weeks after treatment, 0-9 scale
Summary of the method: as §1

ZEAMX (Corn, Field) [7] = test: Postemergence herbicidal evaluation; format: in vivo, Zea mays; details: postemergence
Summary of the method: as §2

AMBEL (Ragweed, Common) = test: Preemergence herbicidal evaluation; format: in vivo, Ambrosia artemisifolia; details: preemergence, rated 4-5 weeks after treatment, 0-9 scale
Summary of the method: as §1

CYPSE (Flatsedge) [8] = test: Postemergence weed control under flooded paddy conditions; format: in vivo, Cyperus serotinus; details: postemergence weeds, rated 3 to 4 weeks after treatment
Summary of the method: as §4

CASOB (Sicklepod) = test: Postemergence herbicidal evaluation; format: in vivo, Cassia obtusifolia; details: postemergence
Summary of the method: as §2

ZEAMX (Corn, Field) [9] = test: Preemergence herbicidal evaluation; format: in vivo, Zea mays; details: preemergence, rated 4-5 weeks after treatment, 0-9 scale
Summary of the method: as §1

CYPIR (Rice Flatsedge) = test: Preemergence weed control under flooded paddy conditions; format: in vivo, Cyperus iria; details: rated 3-4 weeks after treatment
Summary of the method: as §3

COC(=O)C1(N2C(=O)CSC2=Nc2cc(-n3c(=O)cc(C(F)(F)F)n(C)c3=O)c(F)cc2Cl)CCCCC1 [Compound 81, Methyl 1-{2-{{2-chloro-5-[3,6-dihydro-3-methyl-2,6-dioxo-4-(trifluoromethyl)-1(2H)-pyrimidinyl]-4-fluorophenyl}imino}-4-oxo-3-thiazolidinyl}-cyclohexanecarboxylate]
IPOHE rating ([1]; 0.0313 kg/ha): 0.0
IPOHE rating ([1]; 0.1250 kg/ha): 1.0
IPOHE rating ([1]; 0.2500 kg/ha): 9.0
GALAP herbicidal rating (GALAP (Galium); rate 0.0158 kg/ha): 1.0
GALAP herbicidal rating (GALAP (Galium); rate 0.0315 kg/ha): 5.0
GALAP herbicidal rating (GALAP (Galium); rate 0.0630 kg/ha): 4.0
ECHORC herbicidal effect rating ([2]; 0.0625 kg/ha): 0.0
ECHORC herbicidal effect rating ([2]; 0.1250 kg/ha): 3.0
ECHORC herbicidal effect rating ([2]; 0.2500 kg/ha): 3.0
CHEAL rating ([3]; 0.0313 kg/ha): 7.0
CHEAL rating ([3]; 0.0625 kg/ha): 9.0
CHEAL rating ([3]; 0.1250 kg/ha): 9.0
CHEAL rating ([3]; 0.2500 kg/ha): 9.0
CYPSE herbicidal effect rating (CYPSE (Flatsedge) [4]; 0.0625 kg/ha): 0.0
CYPSE herbicidal effect rating (CYPSE (Flatsedge) [4]; 0.1250 kg/ha): 0.0
CYPSE herbicidal effect rating (CYPSE (Flatsedge) [4]; 0.2500 kg/ha): 0.0
TRZAWR rating ([5]; 0.0313 kg/ha): 0.0
TRZAWR rating ([5]; 0.0625 kg/ha): 0.0
TRZAWR rating ([5]; 0.1250 kg/ha): 1.0
TRZAWR rating ([5]; 0.2500 kg/ha): 1.0
Herbicidal rating ECHORC ([6]; Rate 0.0625 kg/ha): 0.0
Herbicidal rating ECHORC ([6]; Rate 0.1250 kg/ha): 3.0
Herbicidal rating ECHORC ([6]; Rate 0.2500 kg/ha): 3.0
ORYSAT rating (ORYSAT (Rice, Tebonnet); 0.0313 kg/ha): 0.0
ORYSAT rating (ORYSAT (Rice, Tebonnet); 0.0625 kg/ha): 0.0
ORYSAT rating (ORYSAT (Rice, Tebonnet); 0.1250 kg/ha): 1.0
ORYSAT rating (ORYSAT (Rice, Tebonnet); 0.2500 kg/ha): 1.0
ZEAMX herbicidal rating (ZEAMX (Corn, Field) [7]; rate 0.0158 kg/ha): 6.5
ZEAMX herbicidal rating (ZEAMX (Corn, Field) [7]; rate 0.0315 kg/ha): 7.0
ZEAMX herbicidal rating (ZEAMX (Corn, Field) [7]; rate 0.0630 kg/ha): 7.0
AMBEL rating (AMBEL (Ragweed, Common); 0.0313 kg/ha): 6.0
AMBEL rating (AMBEL (Ragweed, Common); 0.0625 kg/ha): 6.0
AMBEL rating (AMBEL (Ragweed, Common); 0.1250 kg/ha): 9.0
AMBEL rating (AMBEL (Ragweed, Common); 0.2500 kg/ha): 9.0
Herbicidal rating CYPSE (CYPSE (Flatsedge) [8]; Rate 0.0625 kg/ha): 0.0
Herbicidal rating CYPSE (CYPSE (Flatsedge) [8]; Rate 0.1250 kg/ha): 0.0
Herbicidal rating CYPSE (CYPSE (Flatsedge) [8]; Rate 0.2500 kg/ha): 0.0
CASOB herbicidal rating (CASOB (Sicklepod); rate 0.0158 kg/ha): 1.0
CASOB herbicidal rating (CASOB (Sicklepod); rate 0.0315 kg/ha): 2.0
CASOB herbicidal rating (CASOB (Sicklepod); rate 0.0630 kg/ha): 5.0
ZEAMX rating (ZEAMX (Corn, Field) [9]; 0.0313 kg/ha): 0.0
ZEAMX rating (ZEAMX (Corn, Field) [9]; 0.0625 kg/ha): 2.0
ZEAMX rating (ZEAMX (Corn, Field) [9]; 0.1250 kg/ha): 2.0
ZEAMX rating (ZEAMX (Corn, Field) [9]; 0.2500 kg/ha): 2.0
CYPIR herbicidal effect rating (CYPIR (Rice Flatsedge); 0.0625 kg/ha): 4.0
CYPIR herbicidal effect rating (CYPIR (Rice Flatsedge); 0.1250 kg/ha): 5.0
CYPIR herbicidal effect rating (CYPIR (Rice Flatsedge); 0.2500 kg/ha): 5.0

CCOC(=O)CN1C(=O)C(CC(=O)OCCF)SC1=Nc1cc(-n2c(=O)cc(C(F)(F)F)n(C)c2=O)c(F)cc1Cl (stereo not shown) [Compound 82, 2-{{2-Chloro-5-[3,6-dihydro-3-methyl-2,6-dioxo-4-(trifluoromethyl)-1(2H)-pyrimidinyl]-4-fluoro-phenyl}imino}-4-oxo-3,5-thiazolidinediacetic acid, 3-ethyl 2-fluoroethyl ester]
IPOHE rating ([1]; 0.0156 kg/ha): 0.0
IPOHE rating ([1]; 0.0313 kg/ha): 0.0
IPOHE rating ([1]; 0.0625 kg/ha): 4.0
IPOHE rating ([1]; 0.1250 kg/ha): 9.0
IPOHE rating ([1]; 0.2500 kg/ha): 9.0
GALAP herbicidal rating (GALAP (Galium); rate 0.0158 kg/ha): 4.0
GALAP herbicidal rating (GALAP (Galium); rate 0.0315 kg/ha): 9.0
GALAP herbicidal rating (GALAP (Galium); rate 0.0630 kg/ha): 9.0
ECHORC herbicidal effect rating ([2]; 0.0313 kg/ha): 4.0
ECHORC herbicidal effect rating ([2]; 0.0625 kg/ha): 4.0
ECHORC herbicidal effect rating ([2]; 0.1250 kg/ha): 6.0
ECHORC herbicidal effect rating ([2]; 0.2500 kg/ha): 9.0
CHEAL rating ([3]; 0.0156 kg/ha): 9.0
CHEAL rating ([3]; 0.0313 kg/ha): 9.0
CHEAL rating ([3]; 0.0625 kg/ha): 9.0
CHEAL rating ([3]; 0.1250 kg/ha): 9.0
CHEAL rating ([3]; 0.2500 kg/ha): 9.0
CYPSE herbicidal effect rating (CYPSE (Flatsedge) [4]; 0.0313 kg/ha): 0.0
CYPSE herbicidal effect rating (CYPSE (Flatsedge) [4]; 0.0625 kg/ha): 0.0
CYPSE herbicidal effect rating (CYPSE (Flatsedge) [4]; 0.1250 kg/ha): 2.0
CYPSE herbicidal effect rating (CYPSE (Flatsedge) [4]; 0.2500 kg/ha): 4.0
TRZAWR rating ([5]; 0.0156 kg/ha): 0.0
TRZAWR rating ([5]; 0.0313 kg/ha): 0.0
TRZAWR rating ([5]; 0.0625 kg/ha): 0.0
TRZAWR rating ([5]; 0.1250 kg/ha): 0.0
TRZAWR rating ([5]; 0.2500 kg/ha): 0.0
Herbicidal rating ECHORC ([6]; Rate 0.0313 kg/ha): 4.0
Herbicidal rating ECHORC ([6]; Rate 0.0625 kg/ha): 4.0
Herbicidal rating ECHORC ([6]; Rate 0.1250 kg/ha): 6.0
Herbicidal rating ECHORC ([6]; Rate 0.2500 kg/ha): 9.0
ORYSAT rating (ORYSAT (Rice, Tebonnet); 0.0156 kg/ha): 0.0
ORYSAT rating (ORYSAT (Rice, Tebonnet); 0.0313 kg/ha): 0.0
ORYSAT rating (ORYSAT (Rice, Tebonnet); 0.0625 kg/ha): 0.0
ORYSAT rating (ORYSAT (Rice, Tebonnet); 0.1250 kg/ha): 0.0
ORYSAT rating (ORYSAT (Rice, Tebonnet); 0.2500 kg/ha): 0.0
ZEAMX herbicidal rating (ZEAMX (Corn, Field) [7]; rate 0.0158 kg/ha): 8.5
ZEAMX herbicidal rating (ZEAMX (Corn, Field) [7]; rate 0.0315 kg/ha): 8.5
ZEAMX herbicidal rating (ZEAMX (Corn, Field) [7]; rate 0.0630 kg/ha): 9.0
AMBEL rating (AMBEL (Ragweed, Common); 0.0156 kg/ha): 0.0
AMBEL rating (AMBEL (Ragweed, Common); 0.0313 kg/ha): 2.0
AMBEL rating (AMBEL (Ragweed, Common); 0.0625 kg/ha): 3.0
AMBEL rating (AMBEL (Ragweed, Common); 0.1250 kg/ha): 9.0
AMBEL rating (AMBEL (Ragweed, Common); 0.2500 kg/ha): 9.0
Herbicidal rating CYPSE (CYPSE (Flatsedge) [8]; Rate 0.0313 kg/ha): 0.0
Herbicidal rating CYPSE (CYPSE (Flatsedge) [8]; Rate 0.0625 kg/ha): 0.0
Herbicidal rating CYPSE (CYPSE (Flatsedge) [8]; Rate 0.1250 kg/ha): 2.0
Herbicidal rating CYPSE (CYPSE (Flatsedge) [8]; Rate 0.2500 kg/ha): 4.0
CASOB herbicidal rating (CASOB (Sicklepod); rate 0.0158 kg/ha): 9.0
CASOB herbicidal rating (CASOB (Sicklepod); rate 0.0315 kg/ha): 9.0
CASOB herbicidal rating (CASOB (Sicklepod); rate 0.0630 kg/ha): 9.0
ZEAMX rating (ZEAMX (Corn, Field) [9]; 0.0156 kg/ha): 0.0
ZEAMX rating (ZEAMX (Corn, Field) [9]; 0.0313 kg/ha): 0.0
ZEAMX rating (ZEAMX (Corn, Field) [9]; 0.0625 kg/ha): 0.0
ZEAMX rating (ZEAMX (Corn, Field) [9]; 0.1250 kg/ha): 0.0
ZEAMX rating (ZEAMX (Corn, Field) [9]; 0.2500 kg/ha): 3.0
CYPIR herbicidal effect rating (CYPIR (Rice Flatsedge); 0.0313 kg/ha): 0.0
CYPIR herbicidal effect rating (CYPIR (Rice Flatsedge); 0.0625 kg/ha): 0.0
CYPIR herbicidal effect rating (CYPIR (Rice Flatsedge); 0.1250 kg/ha): 3.0
CYPIR herbicidal effect rating (CYPIR (Rice Flatsedge); 0.2500 kg/ha): 3.0

Source: US20020137929A1, “1 - (3-heterocyclylphenyl) isothiourea, -isourea, -guanidine and -amidine herbicidal agents” (Intellectual Property Department, BASF Aktiengesellschaft, priority 1998, published 2002)
